Data published in the supplement of paper PMC11451515.

Tested on: SEM cells
Assay: cell viability relative to DMSO control; higher = less cytotoxic
Conditions: 48 h
Procedure, shortened: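 Three leukemia lines were tested: NOMO1 and SEM at 500 cells/well and P12-Ichikawa at 1000 cells/well. Each was adapted for at least four passages in each medium and seeded in 5 μl in 1536-well plates, and library compounds in DMSO were pin-dosed from 47 μM to 0.79 nM in 11 threefold steps. After 48 h at 37°C, CellTiter-Glo One luminescence was read. Viability is a percentage relative to DMSO wells on each plate, with cell-free wells as background.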

[1] = HPLM + 10% dialyzed FBS, 0.000781 µM
[2] = HPLM + 10% dialyzed FBS, 0.00234 µM
[3] = HPLM + 10% dialyzed FBS, 0.00702 µM
[4] = HPLM + 10% dialyzed FBS, 0.0211 µM
[5] = HPLM + 10% dialyzed FBS, 0.0632 µM
[6] = HPLM + 10% dialyzed FBS, 0.19 µM
[7] = HPLM + 10% dialyzed FBS, 0.569 µM
[8] = HPLM + 10% dialyzed FBS, 1.71 µM
[9] = HPLM + 10% dialyzed FBS, 5.12 µM
[10] = HPLM + 10% dialyzed FBS, 15.4 µM
[11] = HPLM + 10% dialyzed FBS, 46.1 µM
[12] = RPMI 5 mM glucose + 10% FBS, 0.000781 µM
[13] = RPMI 5 mM glucose + 10% FBS, 0.00234 µM
[14] = RPMI 5 mM glucose + 10% FBS, 0.00702 µM
[15] = RPMI 5 mM glucose + 10% FBS, 0.0211 µM
[16] = RPMI 5 mM glucose + 10% FBS, 0.0632 µM
[17] = RPMI 5 mM glucose + 10% FBS, 0.19 µM
[18] = RPMI 5 mM glucose + 10% FBS, 0.569 µM
[19] = RPMI 5 mM glucose + 10% FBS, 1.71 µM
[20] = RPMI 5 mM glucose + 10% FBS, 5.12 µM
[21] = RPMI 5 mM glucose + 10% FBS, 15.4 µM
[22] = RPMI 5 mM glucose + 10% FBS, 46.1 µM
[23] = RPMI 5 mM glucose + 10% dialyzed FBS, 0.000781 µM
[24] = RPMI 5 mM glucose + 10% dialyzed FBS, 0.00234 µM
[25] = RPMI 5 mM glucose + 10% dialyzed FBS, 0.00702 µM
[26] = RPMI 5 mM glucose + 10% dialyzed FBS, 0.0211 µM
[27] = RPMI 5 mM glucose + 10% dialyzed FBS, 0.0632 µM
[28] = RPMI 5 mM glucose + 10% dialyzed FBS, 0.19 µM
[29] = RPMI 5 mM glucose + 10% dialyzed FBS, 0.569 µM
[30] = RPMI 5 mM glucose + 10% dialyzed FBS, 1.71 µM
[31] = RPMI 5 mM glucose + 10% dialyzed FBS, 5.12 µM
[32] = RPMI 5 mM glucose + 10% dialyzed FBS, 15.4 µM
[33] = RPMI 5 mM glucose + 10% dialyzed FBS, 46.1 µM

Row | Structure (SMILES) | cell viability [1] | cell viability [2] | cell viability [3] | cell viability [4] | cell viability [5] | cell viability [6] | cell viability [7] | cell viability [8] | cell viability [9] | cell viability [10] | cell viability [11] | cell viability [12] | cell viability [13] | cell viability [14] | cell viability [15] | cell viability [16] | cell viability [17] | cell viability [18] | cell viability [19] | cell viability [20] | cell viability [21] | cell viability [22] | cell viability [23] | cell viability [24] | cell viability [25] | cell viability [26] | cell viability [27] | cell viability [28] | cell viability [29] | cell viability [30] | cell viability [31] | cell viability [32] | cell viability [33]
1 | CNc1nc(Nc2cnn([C@H]3CCN(C4COC4)C[C@@H]3F)c2Cl)ncc1C(F)(F)F | 96% | 89.1% | 97.7% | 103% | 109% | 105% | 112% | 93.1% | 37.7% | 20.9% | 26.5% | 103% | 123% | 108% | 112% | 85.3% | 55.7% | 65.5% | 20.1% | 18.9% | 16.1% | 17.6% | 101% | 106% | 112% | 116% | 126% | 106% | 106% | 73.6% | 32% | 17.6% | 17.1%
2 | COC(=O)c1ccc2c(c1)NC(=O)/C2=C(\Nc1ccc(N(C)C(=O)CN2CCN(C)CC2)cc1)c1ccccc1 | 76.7% | 79.4% | 60.3% | 30.1% | 48.9% | 50.9% | 46.4% | 38.3% | 37.9% | 30.5% | 23.8% | 96.1% | 92.7% | 84.2% | 31.7% | 68% | 60% | 57.5% | 43.8% | 41.3% | 36.7% | 24.5% | 82.9% | 83.2% | 60.1% | 30.8% | 49.2% | 44.6% | 38.7% | 35.9% | 30.2% | 29.8% | 25.4%
3 | CC[C@H]1OC(=O)[C@H](C)C(=O)[C@H](C)[C@@H](O[C@H]2O[C@H](C)C[C@H](N(C)C)[C@H]2O)[C@](C)(OC)C[C@@H](C)C(=O)[C@H](C)[C@H]2N(CCCCn3cnc(-c4cccnc4)c3)C(=O)O[C@]12C | 99.7% | 118% | 136% | 120% | 135% | 123% | 105% | 109% | 107% | 105% | 85.2% | 95.6% | 110% | 116% | 117% | 124% | 114% | 114% | 97.8% | 119% | 102% | 93.3% | 110% | 124% | 121% | 117% | 135% | 126% | 99.3% | 119% | 104% | 118% | 86.1%
4 | C[C@@H](CN1CC(=O)NC(=O)C1)N1CC(=O)NC(=O)C1 | 86.3% | 103% | 102% | 96.6% | 70.9% | 32.1% | 17.2% | 12.8% | 10.5% | 5.86% | 4.47% | 93.6% | 99.3% | 98.2% | 67.1% | 72.1% | 17.1% | 9.93% | 8.96% | 7.24% | 4.49% | 3.85% | 75% | 101% | 92.6% | 82.5% | 61.1% | 18.6% | 8.07% | 8.83% | 7.97% | 4.17% | 3.08%
5 | COc1cccc2c1C(=O)c1c(O)c3c(c(O)c1C2=O)C[C@@](O)(C(=O)CO)C[C@@H]3O[C@H]1C[C@H](N)[C@H](O)[C@H](C)O1 | 96.4% | 103% | 117% | 124% | 105% | 92.4% | 47.5% | 12.9% | 6.97% | 4.92% | 3.63% | – | – | – | – | – | – | – | – | – | – | – | 106% | 100% | 108% | 92% | 101% | 69.9% | 40.1% | 9.78% | 5.67% | 3.74% | 2.82%
6 | Nc1ncnc2c1ncn2[C@@H]1O[C@H](CO)C[C@H]1O | 95.8% | 98% | 111% | 106% | 111% | 101% | 103% | 97.4% | 79.7% | 59.4% | 41.2% | 95% | 96% | 99.6% | 98.7% | 104% | 93.2% | 95.4% | 93.6% | 97.8% | 73% | 67.7% | 86.7% | 93.4% | 87.9% | 99.7% | 96.1% | 91.7% | 95.6% | 89.6% | 91.1% | 65% | 41.7%
7 | CN1\C=N/C2=CC=C(NC3=CC(=CC=C3C)NC(=O)C4=CC(=CC=C4)C(C)(C)C#N)C=C2C1=O | 101% | 93.6% | 112% | 117% | 107% | 101% | 87.4% | 95.5% | 74.8% | 79.4% | 44.1% | 113% | 122% | 107% | 114% | 113% | 105% | 101% | 96.7% | 87.7% | 84.2% | 31.9% | 93.6% | 97.9% | 92.4% | 115% | 101% | 107% | 101% | 102% | 70% | 75.8% | 34.9%
8 | COc1ccc(C(=O)c2c(C)n(CCN3CCOCC3)c3cc(I)ccc23)cc1 | 85.3% | 102% | 111% | 109% | 105% | 110% | 103% | 93.8% | 98.5% | 91.7% | 66.4% | 88% | 108% | 104% | 93.6% | 106% | 111% | 107% | 111% | 96.4% | 95.1% | 52% | 102% | 93.5% | 117% | 115% | 115% | 123% | 132% | 129% | 107% | 99.1% | 60.3%
9 | CCOC(=O)\C1=C\[C@]2(CC)CCCN3CCC4=C([C@H]23)[N]1C5=C4C=CC=C5 | 71.6% | 100% | 87.6% | 111% | 118% | 103% | 104% | 111% | 114% | 97.7% | 80.7% | 103% | 104% | 111% | 114% | 121% | 112% | 110% | 108% | 109% | 107% | 77.1% | 93.7% | 111% | 112% | 108% | 116% | 124% | 126% | 108% | 118% | 105% | 94.7%
10 | O=P(O)(O)C(O)(Cn1ccnc1)P(=O)(O)O | 73.9% | 94% | 19.2% | 101% | 106% | 101% | 107% | 106% | 104% | 109% | 99.1% | 95.8% | 102% | 10.2% | 110% | 120% | 116% | 123% | 110% | 123% | 120% | 114% | 100% | 89.7% | 22.5% | 92.7% | 114% | 104% | 102% | 117% | 120% | 116% | 121%
11 | CNCC[C@H](Oc1cccc2ccccc12)c1cccs1 | 121% | 128% | 110% | 122% | 121% | 130% | 111% | 99.4% | 110% | 84.2% | 46.4% | 124% | 117% | 119% | 116% | 110% | 136% | 111% | 107% | 86% | 96.2% | 24% | – | – | – | – | – | – | – | – | – | – | –
12 | Cc1ccccc1C(=O)Nc1ccc(C(=O)N2CCCC(O)c3cc(Cl)ccc32)c(C)c1 (centres undefined) | 109% | 97.2% | 97.9% | 112% | 113% | 117% | 131% | 42.2% | 108% | 127% | 121% | 122% | 109% | 123% | 136% | 141% | 127% | 137% | 32.9% | 140% | 151% | 146% | 103% | 116% | 112% | 140% | 132% | 136% | 149% | 56.3% | 146% | 140% | 133%
13 | NC[C@H]1O[C@H](O[C@@H]2[C@H](O)[C@@H](O[C@H]3O[C@H](CO)[C@@H](O)[C@H](N)[C@H]3O)[C@H](N)C[C@@H]2N)[C@H](O)[C@@H](O)[C@@H]1O | 96.6% | 93.3% | 100% | 24% | 88.6% | 105% | 105% | 96.8% | 105% | 90.1% | 87.3% | – | – | – | – | – | – | – | – | – | – | – | 115% | 125% | 124% | 23% | 113% | 83.3% | 107% | 113% | 105% | 104% | 92.4%
14 | Nc1c2c(nc3ccccc13)CCCC2 | 92.9% | 104% | 118% | 109% | 115% | 118% | 101% | 25.6% | 108% | 108% | 86.1% | 121% | 123% | 122% | 109% | 111% | 112% | 97.3% | 17.5% | 100% | 118% | 80.5% | 109% | 131% | 123% | 104% | 112% | 123% | 95.7% | 24.7% | 117% | 104% | 87.6%
15 | CC(C)(O)CC(=O)NCCn1ccc2ncnc(Nc3ccc(Oc4cccc(C(F)(F)F)c4)c(Cl)c3)c21 | 106% | 110% | 102% | 103% | 112% | 105% | 103% | 96.5% | 94.6% | 71.6% | 32.9% | – | – | – | – | – | – | – | – | – | – | – | 105% | 88% | 102% | 103% | 109% | 107% | 100% | 101% | 90.4% | 58.5% | 23.6%
16 | OCC(O)C(O)C(O)CO (centres undefined) | 85.4% | 83.7% | 98.2% | 101% | 103% | 102% | 73.8% | 94.7% | 91.6% | 37.5% | 88.9% | 89% | 91.1% | 92.2% | 95.9% | 109% | 102% | 80.2% | 103% | 97.8% | 29.8% | 86.4% | 103% | 105% | 102% | 101% | 88.6% | 89.1% | 64.6% | 91.5% | 109% | 30.3% | 93%
